According to patent US20250018052A1, “ANTI-HER3 ANTIBODY DRUG CONJUGATE, COMPOSITION THEREOF, AND USE THEREOF” (CHIA TAI TIANQING PHARMACEUTICAL GROUP CO., LTD., priority 2021, published 2025):

What was measured:
[1] = tested on: BT474 cells with high HER3 expression level; test: Cell killing activity (CellTiter-Glo), BT474; type: cell-based; conditions: cultured for 96 h, 120 h, or 144 h
Method: (§1) Cells in the logarithmic growth phase were added to a 96-well plate at 100 μL/well, and the cell density was 1×10^4/mL or […]. Adherence culture was carried out at 37° C. and 5% CO2 overnight. Sample preparation: the patritumab-eribulin conjugates were each formulated into test samples with a basal medium containing 10% FBS (initial concentration of 5 μg/mL, 5-fold gradient dilution, nine gradients). Cells subjected to overnight adherence culture were taken out. For the experimental groups, the diluted test sample was added at 50 μL/well, and for the control group, the basal medium containing 10% FBS was added at 50 µL/well. The cells were then cultured for 96 h, 120 h, or 144 h, and then a CellTiter-Glo Luminescent Cell kit (Promega, Cat No.: G7572) was used for assay. The 96-well plate was taken out, the CTG detection solution (Promega. Cat No.: G7572) was added at 75 μL/well, and the mixture was well mixed by shaking and incubated at room temperature in the dark for 10 min. Then 180 μL of solution was pipetted from each well and transferred to an opaque white plate, bubbles were removed, chemiluminescence values were read, and killing rates were calculated.
(§2) Data were analyzed using Graphpad Prism5.

[2] = tested on: MCF-7 cells with high HER3 expression level; test: Cell killing activity (CellTiter-Glo), MCF-7; type: cell-based; conditions: cultured for 96 h, 120 h, or 144 h
Method: as §1, §2

[3] = tested on: HCC1569 cells with high HER3 expression level; test: Cell killing activity (CellTiter-Glo), HCC1569; type: cell-based; conditions: cultured for 96 h, 120 h, or 144 h
Method: as §1, §2

[4] = tested on: SKBR3 cells with medium HER3 expression level; test: Cell killing activity (CellTiter-Glo), SKBR3; type: cell-based; conditions: cultured for 96 h, 120 h, or 144 h
Method: as §1, §2

[5] = tested on: NCI-N87 cells with medium HER3 expression level; test: Cell killing activity (CellTiter-Glo), NCI-N87; type: cell-based; conditions: cultured for 96 h, 120 h, or 144 h
Method: as §1, §2

[6] = tested on: JIMT-1 cells with medium HER3 expression level; test: Cell killing activity (CellTiter-Glo), JIMT-1; type: cell-based, human; conditions: cultured for 96 h, 120 h, or 144 h
Method: as §1, §2

[7] = tested on: MDA-MB-468 cells with medium HER3 expression level; test: Cell killing activity (CellTiter-Glo), MDA-MB-468; type: cell-based; conditions: cultured for 96 h, 120 h, or 144 h
Method: as §1, §2

[8] = tested on: JIMT-1 human breast cancer cells; test: Nude mouse subcutaneous xenograft tumor model of JIMT-1 human breast cancer cells; type: in vivo, nude mice; conditions: 3 mg/kg, tail vein injection, Q1W, d21; for Tumor growth inhibition rate 1-T/C: from relative tumor volume; for Tumor inhibition rate TGI: from tumor weight
Method: The in vivo efficacy of the patritumab-eribulin conjugates prepared in Example 4 above was evaluated by the nude mouse subcutaneous xenograft tumor models of JIMT-1 human breast cancer cells, a trastuzumab-resistant cell strain.
SPF-grade female nude mice (from Changzhou Cavens Laboratory Animal Ltd.) were inoculated subcutaneously at the right side armpit with 2×10^6 JIMT-1 cells per mouse. When the mean tumor volume reached […], the animals were divided into 5 groups of 6, and the specific grouping and administration regimen are shown in Table 6.
The day of grouping was do, and the tail vein administration was performed at d1 after grouping. The tumor volume was measured 2-3 times a week, and meanwhile, the mice were weighed and the data were recorded; the general behavior of the mice was observed and recorded every day. After the experiment was completed, the tumors were removed, weighed, and photographed.

Substance	EC50 [1]	EC50 [2]	EC50 [3]	EC50 [4]	EC50 [5]	EC50 [6]	EC50 [7]	Tumor growth inhibition rate 1-T/C [8]	Tumor inhibition rate TGI [8]
Patritumab-eribulin-D8: patritumab-eribulin conjugate (MC-GGFG-eribulin linker-payload) with a DAR of 7.6	0.0181 nM	0.0361 nM	0.246 nM	0.0232 nM	0.691 nM	0.946 nM	0.321 nM	82.9%	84.3%
Patritumab-DDDXd-D8: patritumab-DDDXd conjugate (MC-GGFG-DDDXd, deuterated MC-GGFG-DXd) with a DAR of 7.9, used as control [reference compound]	10.4 nM	–	18.3 nM	57.9 nM	0.371 nM	–	–	24.4%	26.6%
Patritumab-eribulin-D2: patritumab-eribulin conjugate (MC-GGFG-eribulin linker-payload) with a DAR of 2.6	0.0935 nM	1.17 nM	3.6 nM	0.194 nM	–	10.5 nM	12.1 nM	36.6%	41.1%
Patritumab-eribulin-D4: patritumab-eribulin conjugate (MC-GGFG-eribulin linker-payload) with DAR of 4.0-4.2	0.0398 nM	0.0994 nM	0.778 nM	0.043 nM	13.9 nM	3.27 nM	1.41 nM	65.9%	68.9%
